From US20100267561A1, “HERBICIDAL PYRIDAZINONE DERIVATIVES” (priority 2007, published 2010)
Where two headings read alike, the source gives them in different places.

Tests used:
Test in all cases: Test B pre-/postemergence plant response
Format in all cases: in vivo
[1] = test system: Russian thistle (Salsola iberica); conditions: Preemergence; for Russian Thistle plant response rating: scale 0 to 100
Method in brief: (§1)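 Seeds were sown and sprayed preemergence, while plants at 2 to 18 cm (1- to 4-leaf stage) got postemergence sprays. Compounds were formulated in a non-phytotoxic solvent mixture with surfactant. After 13 to 15 days in a greenhouse, injury was rated visually against untreated controls, 0 (no effect) to 100 (complete control).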

[2] = test system: bermudagrass (Cynodon dactylon); conditions: for pest or weed control at 31 g/ha: 31 g ai/ha; for pest or weed control at 62 g/ha: 62 g ai/ha, 100 complete control
Method in brief: as §1

[3] = test system: cocklebur (Xanthium strumarium); conditions: for pest or weed control at 31 g/ha: 31 g ai/ha; for pest or weed control at 62 g/ha: 62 g ai/ha, 100 complete control
Method in brief: as §1

corn (Zea mays) = conditions: for Corn plant response rating (crop injury, 0 = no effect, 100 = complete kill) at 31 g/ha: 31 g ai/ha; for Corn plant response rating (crop injury, 0 = no effect, 100 = complete kill) at 62 g/ha: 62 g ai/ha, 100 complete control
Method in brief: as §1

[4] = test system: giant foxtail (Setaria faberii); conditions: for pest or weed control at 31 g/ha: 31 g ai/ha; for pest or weed control at 62 g/ha: 62 g ai/ha, 100 complete control
Method in brief: as §1

[5] = test system: goosegrass (Eleusine indica); conditions: for pest or weed control at 31 g/ha / pest or weed control at 62 g/ha: Eleusine indica, read-out: Plant response rating, Goosegrass; for pest or weed control at 31 g/ha: 31 g ai/ha; for pest or weed control at 62 g/ha: 62 g ai/ha, 100 complete control
Method in brief: as §1

[6] = test system: green foxtail (Setaria viridis); conditions: for pest or weed control at 31 g/ha: 31 g ai/ha; for pest or weed control at 62 g/ha: 62 g ai/ha, 100 complete control
Method in brief: as §1

kochia (Kochia scoparia) = conditions: for Kochia plant response rating: postemergence, 0-100 scale; for Plant response rating, Kochia: Postemergence
Method in brief: as §1

[7] = test system: lambsquarters (Chenopodium album); conditions: for pest or weed control at 31 g/ha / pest or weed control at 62 g/ha: Chenopodium album, read-out: Plant response rating, Lambsquarters; for pest or weed control at 31 g/ha: 31 g ai/ha; for pest or weed control at 62 g/ha: 62 g ai/ha, 100 complete control
Method in brief: as §1

soybean (Glycine max) = conditions: for plant injury at 31 g/ha / plant injury at 62 g/ha: Glycine max, read-out: Plant response rating, Soybean; for plant injury at 31 g/ha: 31 g ai/ha; for plant injury at 62 g/ha: 62 g ai/ha, 100 complete control
Method in brief: as §1

[8] = test system: velvetleaf (Abutilon theophrasti); conditions: for pest or weed control at 31 g/ha / pest or weed control at 62 g/ha: Abutilon theophrasti, read-out: Plant response rating, Velvetleaf; for pest or weed control at 31 g/ha: 31 g ai/ha; for pest or weed control at 62 g/ha: 62 g ai/ha, 100 complete control
Method in brief: as §1

[9] = test system: wheat (Triticum aestivum); conditions: for plant injury at 31 g/ha / plant injury at 62 g/ha: Triticum aestivum, read-out: Plant response rating, Wheat; for plant injury at 31 g/ha: 31 g ai/ha; for plant injury at 62 g/ha: 62 g ai/ha, 100 complete control
Method in brief: as §1

[10] = test system: woolly cupgrass (Eriochloa villosa); conditions: for pest or weed control at 31 g/ha: 31 g ai/ha; for pest or weed control at 62 g/ha: 62 g ai/ha, 100 complete control
Method in brief: as §1

[11] = test system: yellow nutsedge (Cyperus esculentus); conditions: for pest or weed control at 31 g/ha / pest or weed control at 62 g/ha: Cyperus, read-out: Plant response rating, Nutsedge, Yellow; for pest or weed control at 31 g/ha: 31 g ai/ha; for pest or weed control at 62 g/ha: 62 g ai/ha, 100 complete control
Method in brief: as §1

[12] = 8 g ai/ha, postemergence, 0-100 scale
[13] = Preemergence, 8 g ai/ha, scale 0 to 100
[14] = Preemergence, 16 g ai/ha, scale 0 to 100
[15] = 16 g ai/ha, postemergence, 0-100 scale
[16] = post-emergence, Postemergence, scale 0 to 100
[17] = post-emergence, Postemergence, scale 0 to 100, 0 no effect
[18] = pre-emergence, Preemergence, scale 0 to 100 (0 no effect, 100 complete control)
[19] = pre-emergence, Preemergence, 0 to 100 scale, 0 no effect

Cc1nn(C)c(=O)c(-n2nc(-c3ccc(C(F)(F)F)cc3)cc2C)c1O [Compound 75, 5-hydroxy-2,6-dimethyl-4-[5-methyl-3-[4-(trifluoromethyl)phenyl]-1H-pyrazol-1-yl]-3(2H)-pyridazinone]
0%: pest or weed control at 16 g/ha ([3]; Xanthium strumarium, post-emergence, Postemergence, 16 g ai/ha, scale 0 to 100, read-out: Plant response rating, Cocklebur) | pest or weed control at 31 g/ha ([3]; Xanthium strumarium, post-emergence, Postemergence, scale 0 to 100, read-out: Plant response rating, Cocklebur) | pest or weed control at 62 g/ha ([3]; Xanthium strumarium, post-emergence, Postemergence, scale 0 to 100, 0 no effect, read-out: Plant response rating, Cocklebur) | pest or weed control at 31 g/ha ([3]; Xanthium strumarium, pre-emergence, Preemergence, scale 0 to 100 (0 no effect, 100 complete control), read-out: Plant response rating, Cocklebur) | pest or weed control at 62 g/ha ([3]; Xanthium strumarium, pre-emergence, Preemergence, 0 to 100 scale, 0 no effect, read-out: Plant response rating, Cocklebur) | pest or weed control at 31 g/ha [7, 16] | pest or weed control at 62 g/ha [7, 17] | pest or weed control at 31 g/ha [7, 18] | pest or weed control at 62 g/ha [7, 19] | plant injury at 31 g/ha (soybean (Glycine max); [16]) | plant injury at 62 g/ha (soybean (Glycine max); [17]) | plant injury at 31 g/ha (soybean (Glycine max); [18]) | plant injury at 62 g/ha (soybean (Glycine max); [19]) | pest or weed control at 31 g/ha [8, 16] | pest or weed control at 62 g/ha [8, 17] | pest or weed control at 31 g/ha [8, 18] | pest or weed control at 62 g/ha [8, 19] | pest or weed control at 31 g/ha [11, 16] | pest or weed control at 62 g/ha [11, 17] | pest or weed control at 31 g/ha [11, 18] | pest or weed control at 62 g/ha [11, 19]
100%: Corn plant response rating (crop injury, 0 = no effect, 100 = complete kill) at 62 g/ha (corn (Zea mays); Zea mays, post-emergence, Postemergence, scale 0 to 100, 0 no effect)
30: Goosegrass plant response rating [5, 12] | Foxtail, Green plant response rating [6, 14]
65: Bermudagrass plant response rating [2, 12] | Goosegrass plant response rating [5, 14]
90%: pest or weed control at 62 g/ha ([2]; Cynodon dactylon, post-emergence, Postemergence, scale 0 to 100, 0 no effect, read-out: Plant response rating, Bermudagrass) | Corn plant response rating (crop injury, 0 = no effect, 100 = complete kill) at 31 g/ha (corn (Zea mays); Zea mays, post-emergence, Postemergence, scale 0 to 100) | pest or weed control at 31 g/ha [5, 18]
75%: Corn plant response rating (crop injury, 0 = no effect, 100 = complete kill) at 31 g/ha (corn (Zea mays); Zea mays, pre-emergence, Preemergence, scale 0 to 100 (0 no effect, 100 complete control)) | pest or weed control at 62 g/ha [5, 17] | pest or weed control at 62 g/ha ([10]; Eriochloa villosa, post-emergence, Postemergence, scale 0 to 100, 0 no effect, read-out: Plant response rating, Cupgrass, Woolly) | pest or weed control at 62 g/ha ([10]; Eriochloa villosa, pre-emergence, Preemergence, 0 to 100 scale, 0 no effect, read-out: Plant response rating, Cupgrass, Woolly)
20%: plant injury at 31 g/ha [9, 18]
70%: pest or weed control at 16 g/ha ([4]; Setaria faberi, post-emergence, Postemergence, 16 g ai/ha, scale 0 to 100, read-out: Plant response rating, Foxtail, Giant) | plant injury at 31 g/ha [9, 16]
80%: pest or weed control at 16 g/ha ([2]; Cynodon dactylon, post-emergence, Postemergence, 16 g ai/ha, scale 0 to 100, read-out: Plant response rating, Bermudagrass) | pest or weed control at 31 g/ha ([4]; Setaria faberi, post-emergence, Postemergence, scale 0 to 100, read-out: Plant response rating, Foxtail, Giant) | pest or weed control at 31 g/ha ([6]; Setaria viridis, post-emergence, Postemergence, scale 0 to 100, read-out: Plant response rating, Foxtail, Green) | pest or weed control at 62 g/ha ([6]; Setaria viridis, pre-emergence, Preemergence, 0 to 100 scale, 0 no effect, read-out: Plant response rating, Foxtail, Green)
50: Foxtail, Giant plant response rating [4, 12] | Goosegrass plant response rating [5, 15] | Goosegrass plant response rating [5, 13]
60%: pest or weed control at 31 g/ha [5, 16]
0: Plant response rating, Russian Thistle ([1]; 31 g ai/ha, scale 0 to 100 (0 no effect, 100 complete control)) | Plant response rating, Russian Thistle ([1]; 62 g ai/ha, 0 to 100 scale, 0 no effect, 100 complete control) | Russian Thistle plant response rating ([1]; 8 g ai/ha) | Russian Thistle plant response rating ([1]; 16 g ai/ha) | Bermudagrass plant response rating ([2]; Preemergence, 16 g ai/ha, scale 0 to 100 (0 no effect, 100 complete control)) | Cocklebur plant response rating [3, 12] | Cocklebur plant response rating [3, 13] | Cocklebur plant response rating [3, 14] | Corn plant response rating (corn (Zea mays); [12]) | Corn plant response rating (corn (Zea mays); [13]) | Corn plant response rating (corn (Zea mays); [14]) | Foxtail, Giant plant response rating [4, 13] | Foxtail, Giant plant response rating [4, 14] | Foxtail, Green plant response rating [6, 12] | Foxtail, Green plant response rating [6, 13] | Kochia plant response rating (kochia (Kochia scoparia); 8 g ai/ha) | Kochia plant response rating (kochia (Kochia scoparia); 16 g ai/ha) | Plant response rating, Kochia (kochia (Kochia scoparia); 31 g ai/ha, scale 0 to 100) | Plant response rating, Kochia (kochia (Kochia scoparia); 62 g ai/ha, scale 0 to 100, 0 no effect, 100 complete control) | Lambsquarters plant response rating [7, 12] | Lambsquarters plant response rating [7, 15] | Lambsquarters plant response rating [7, 13] | Lambsquarters plant response rating [7, 14] | Soybean plant response rating (soybean (Glycine max); [12]) | Soybean plant response rating (soybean (Glycine max); [15]) | Soybean plant response rating (soybean (Glycine max); [13]) | Soybean plant response rating (soybean (Glycine max); [14]) | Velvetleaf plant response rating [8, 12] | Velvetleaf plant response rating [8, 15] | Velvetleaf plant response rating [8, 13] | Velvetleaf plant response rating [8, 14] | Wheat plant response rating [9, 12] | Wheat plant response rating [9, 14] | Cupgrass, Woolly plant response rating [10, 13] | Cupgrass, Woolly plant response rating [10, 14] | Nutsedge, Yellow plant response rating [11, 12] | Nutsedge, Yellow plant response rating [11, 15] | Nutsedge, Yellow plant response rating [11, 13] | Nutsedge, Yellow plant response rating [11, 14]
20: Wheat plant response rating [9, 15] | Cupgrass, Woolly plant response rating [10, 12]
50%: Corn plant response rating (crop injury, 0 = no effect, 100 = complete kill) at 16 g/ha (corn (Zea mays); Zea mays, post-emergence, Postemergence, 16 g ai/ha, scale 0 to 100) | pest or weed control at 31 g/ha ([4]; Setaria faberi, pre-emergence, Preemergence, scale 0 to 100 (0 no effect, 100 complete control), read-out: Plant response rating, Foxtail, Giant) | pest or weed control at 31 g/ha ([6]; Setaria viridis, pre-emergence, Preemergence, scale 0 to 100 (0 no effect, 100 complete control), read-out: Plant response rating, Foxtail, Green)
95%: Corn plant response rating (crop injury, 0 = no effect, 100 = complete kill) at 62 g/ha (corn (Zea mays); Zea mays, pre-emergence, Preemergence, 0 to 100 scale, 0 no effect) | pest or weed control at 62 g/ha ([4]; Setaria faberi, pre-emergence, Preemergence, 0 to 100 scale, 0 no effect, read-out: Plant response rating, Foxtail, Giant) | pest or weed control at 62 g/ha ([6]; Setaria viridis, post-emergence, Postemergence, scale 0 to 100, 0 no effect, read-out: Plant response rating, Foxtail, Green)
40%: pest or weed control at 16 g/ha ([6]; Setaria viridis, post-emergence, Postemergence, 16 g ai/ha, scale 0 to 100, read-out: Plant response rating, Foxtail, Green)
98%: pest or weed control at 62 g/ha ([2]; Cynodon dactylon, pre-emergence, Preemergence, 0 to 100 scale, 0 no effect, read-out: Plant response rating, Bermudagrass) | pest or weed control at 62 g/ha [5, 19]
85%: pest or weed control at 31 g/ha ([2]; Cynodon dactylon, post-emergence, Postemergence, scale 0 to 100, read-out: Plant response rating, Bermudagrass) | pest or weed control at 62 g/ha ([4]; Setaria faberi, post-emergence, Postemergence, scale 0 to 100, 0 no effect, read-out: Plant response rating, Foxtail, Giant) | plant injury at 62 g/ha [9, 17]
45%: plant injury at 62 g/ha [9, 19]
65%: pest or weed control at 31 g/ha ([2]; Cynodon dactylon, pre-emergence, Preemergence, scale 0 to 100 (0 no effect, 100 complete control), read-out: Plant response rating, Bermudagrass) | pest or weed control at 16 g/ha ([10]; Eriochloa villosa, post-emergence, Postemergence, 16 g ai/ha, scale 0 to 100, read-out: Plant response rating, Cupgrass, Woolly) | pest or weed control at 31 g/ha ([10]; Eriochloa villosa, post-emergence, Postemergence, scale 0 to 100, read-out: Plant response rating, Cupgrass, Woolly) | pest or weed control at 31 g/ha ([10]; Eriochloa villosa, pre-emergence, Preemergence, scale 0 to 100 (0 no effect, 100 complete control), read-out: Plant response rating, Cupgrass, Woolly)
